Source: patent US20050130252A1, “Stabilized susceptibility tests of aerobic pathogens” (Wyeth Holdings Corporation, priority 2003, published 2005)
In brackets after ≈: the same amount, converted by molar mass. Like-named read-outs stand apart in the source and are kept apart here.

Columns and labels:
Assay in all cases: Broth microdilution MIC
E. faecalis ATCC 29212 = assay type: cell-based, Enterococcus faecalis; conditions: E. faecalis ATCC 29212
Experimental: (§1) The process for preparing susceptibility test medium are the following steps: • a. Preparing Mueller Hinton Broth II medium by adding 22 grams powdered media to 1.0 liter distilled water; • b. Autoclaving (121° C., 15 psi, 15 minutes) and cooling the medium; • c. Adding Oxyrase® up to about 10% final volume and keeping at 35-37° C. in an incubator for 30 minutes; • d. Adding about 50 μL to each well of a 96 well microtiter plate; • e. Weighing drug and adding broth to drug to bring up to about (standard 128 μg/ml); • f. Adding 50 μL of the drug to the first column of the titer plate; • g. Diluting by two-fold serial diluting across or down the plate. • h. Preparing a Prompt™ inoculum at 10^8 CFU/ml; • i. Diluting inoculum 1:100 in the broth at […] in 9.9 ml (1:100) is 10^6 colony forming units (CFU) forming the adjusted inoculum; • j. Adding 50 μL of the adjusted inoculum to the wells of the microtiter plate; • k. Incubating the plates at 35-37° C. for 18-22 hours; and • l. Reading, with the unaided eye, the MIC.
(§2) The in vitro activities of tigecycline and control antibiotics were determined by the broth microdilution method as recommended by the NCCLS. (National Committee for Clinical Laboratory Standards, 2003. Methods for Dilution Antimicrobial Susceptibility Tests for Bacteria That Grow Aerobically; Approved Standards: M7-A6, Sixth ed, vol. 23., National Committee for Clinical Laboratory Standards Wayne, Pa.) was used for the standard procedures. MBH with 5% lysed horse blood was used for testing S. pneumoniae and Haemophilus Test Medium was used for testing H. influenzae. Oxyrase® (Oxyrase Inc, Mansfield, Ohio) was used according to the manufacturer's instructions by adding 1 ml of Oxyrase® to 50 ml of media. Media age studies were performed by preparing MHB in multiple flasks, then storing the media under various conditions. MICs were usually performed in duplicate on each day of testing. Storage under anaerobic conditions was conducted in an anaerobic chamber (MACS MG 1000, Don Whitley Scientific LTD). The pH of the media was determined by pH meter (Corning 430). A comparison of the in vitro activity of tigecycline by agar and broth dilution methodolgies with and without Oxyrase® against clinical isolates is shown in Table 1.

[1] = test system: Escherichia coli GC4560 IMP mutant; assay type: cell-based; conditions: E. coli GC4560 IMP mutant
Experimental: as §1, §2

[2] = test system: Staphylococcus aureus GC2216 ATCC Control; assay type: cell-based; conditions: for In Vitro Activity of Tigecycline: Broth, S. aureus GC2216 ATCC Control; for MIC: Staphylococcus aureus, S. aureus GC2216 (ATCC Control), read-out: Minimal Inhibitory Concentration
Experimental: as §1, §2

S. pneumoniae ATCC 49619 = assay type: cell-based
Experimental: as §1, §2

[3] = test system: Staphylococcus aureus GC1131 Clinical isolate; assay type: cell-based; conditions: for In Vitro Activity of Tigecycline: Broth, S. aureus GC1131; for MIC: Staphylococcus aureus, S. aureus GC1131 (Clinical), read-out: Minimal Inhibitory Concentration
Experimental: as §1, §2

[4] = test system: H. influenzae GC6896 (ATCC Control); assay type: cell-based; conditions: Haemophilus influenzae, read-out: Minimal Inhibitory Concentration
Experimental: as §1, §2

[5] = test system: Enterococcus faecalis GC2242 Vancomycin-Resistant; assay type: cell-based; conditions: for In Vitro Activity of Tigecycline: Broth, E. faecalis GC2242 Vancomycin-Resistant; for MIC: Enterococcus faecalis, read-out: Minimal Inhibitory Concentration
Experimental: as §1, §2

[6] = test system: Staphylococcus aureus GC4536 Smith MP -In Vivo; assay type: cell-based; conditions: for In Vitro Activity of Tigecycline: Broth, S. aureus GC4536 Smith; for MIC: Staphylococcus aureus, S. aureus GC4536 (Smith MP - In Vivo), read-out: Minimal Inhibitory Concentration
Experimental: as §1, §2

[7] = Table 8, Mueller Hinton Broth + Oxyrase, n = 240
[8] = Table 8, Mueller Hinton Broth, n = 320
[9] = Table 9, Mueller Hinton Broth + Oxyrase, n = 31
[10] = Table 9, Mueller Hinton Broth, n = 96
[11] = 336 h, Aged Media (two weeks at RT)

CN(C)c1cc(NC(=O)CNC(C)(C)C)c(O)c2c1C[C@H]1C[C@H]3[C@H](N(C)C)C(O)=C(C(N)=O)C(=O)[C@@]3(O)C(O)=C1C2=O [Tigecycline, tigecycline]
Number of Occurrences of MIC 0.5 ug/ml (E. faecalis ATCC 29212; [7]): 1 | Number of Occurrences of MIC 1 ug/ml (E. faecalis ATCC 29212; [7]): 1 | Number of Occurrences of MIC 0.06 ug/ml (E. faecalis ATCC 29212; [8]): 1 | Number of Occurrences of MIC 0.12 ug/ml (E. faecalis ATCC 29212; [8]): 96 | Number of Occurrences of MIC 0.25 ug/ml (E. faecalis ATCC 29212; [8]): 140 | Number of Occurrences of MIC 0.5 ug/ml (E. faecalis ATCC 29212; [8]): 16 | Number of Occurrences of MIC 1 ug/ml (E. faecalis ATCC 29212; [8]): 64 | Number of Occurrences of MIC 2 ug/ml (E. faecalis ATCC 29212; [8]): 3 | Number of Occurrences of MIC 0.03 ug/ml (E. faecalis ATCC 29212; [9]): 6 | Number of Occurrences of MIC 0.06 ug/ml (E. faecalis ATCC 29212; [9]): 14 | Number of Occurrences of MIC 0.12 ug/ml (E. faecalis ATCC 29212; [9]): 11 | Number of Occurrences of MIC 0.12 ug/ml (E. faecalis ATCC 29212; [10]): 25 | Number of Occurrences of MIC 0.25 ug/ml (E. faecalis ATCC 29212; [10]): 52 | Number of Occurrences of MIC 0.5 ug/ml (E. faecalis ATCC 29212; [10]): 19 | In Vitro Activity of Tigecycline ([1]; Oxyrase (2%)): 0.03 | In Vitro Activity of Tigecycline ([1]; no Oxyrase): 0.25 | In Vitro Activity of Tigecycline ([2]; Oxyrase (2%)): 0.12 | In Vitro Activity of Tigecycline ([2]; no Oxyrase): 0.50 | MIC [2, 11]: 0.25 µg/mL (≈ 0.427 µM) | MIC ([2]; Fresh Media): 0.12 µg/mL (≈ 0.205 µM) | Number of Occurrences of MIC 0.004 ug/ml (S. pneumoniae ATCC 49619; [7]): 6 | Number of Occurrences of MIC 0.008 ug/ml (S. pneumoniae ATCC 49619; [7]): 73 | Number of Occurrences of MIC 0.016 ug/ml (S. pneumoniae ATCC 49619; [7]): 137 | Number of Occurrences of MIC 0.03 ug/ml (S. pneumoniae ATCC 49619; [7]): 21 | Number of Occurrences of MIC 0.06 ug/ml (S. pneumoniae ATCC 49619; [7]): 3 | Number of Occurrences of MIC 0.016 ug/ml (S. pneumoniae ATCC 49619; [8]): 1 | Number of Occurrences of MIC 0.03 ug/ml (S. pneumoniae ATCC 49619; [8]): 54 | Number of Occurrences of MIC 0.06 ug/ml (S. pneumoniae ATCC 49619; [8]): 188 | Number of Occurrences of MIC 0.12 ug/ml (S. pneumoniae ATCC 49619; [8]): 48 | Number of Occurrences of MIC 0.25 ug/ml (S. pneumoniae ATCC 49619; [8]): 29 | In Vitro Activity of Tigecycline ([3]; Oxyrase (2%)): 0.25 | In Vitro Activity of Tigecycline ([3]; no Oxyrase): 0.50 | MIC [3, 11]: 0.25 µg/mL (≈ 0.427 µM) | MIC ([3]; Fresh Media): 0.25 µg/mL (≈ 0.427 µM) | MIC [4, 11]: 0.5 µg/mL (≈ 0.854 µM) | MIC ([4]; Fresh Media): 0.25 µg/mL (≈ 0.427 µM) | In Vitro Activity of Tigecycline ([5]; Oxyrase (2%)): 0.12 | In Vitro Activity of Tigecycline ([5]; no Oxyrase): 0.50 | MIC ([5]; 336 h): 0.12 µg/mL (≈ 0.205 µM) | MIC [5]: 0.06 µg/mL (≈ 0.102 µM) | In Vitro Activity of Tigecycline ([6]; Oxyrase (2%)): 0.12 | In Vitro Activity of Tigecycline ([6]; no Oxyrase): 0.50 | MIC [6, 11]: 0.25 µg/mL (≈ 0.427 µM) | MIC ([6]; Fresh Media): 0.12 µg/mL (≈ 0.205 µM)
